Experimental data published in PubChem BioAssay AID248 (DTP/NCI, 2004).
Where “and” joins values, the source holds several entries; their conditions need not be identical. Equal values may be shown once. Inconclusive results and toxic doses are left out. Rule as the data show it: active = T/C of 150% or more; inactive = T/C below 125%.

Test system: L1210 leukemia ip in BDF1 mice, survival T/C
Experiment: NCI In Vivo Anticancer Drug Screen. Data for tumor model L1210 Leukemia (intraperitoneal) in B6D2F1 (BDF1) mice
Details: endpoint: mean survival time, higher = longer survival
Method in brief: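 Transplantable tumor model; survival measured in treated vs vehicle control mice. Value = treated/control.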

[1] = dose: 100.0 mg/kg/injection, schedule: Q01DX001 (ip), vehicle: saline
[2] = dose: 100.0 mg/kg/injection, schedule: Q01DX009 (ip), vehicle: Klucel (hydroxypropylcellulose) (HPC)
[3] = dose: 100.0 mg/kg/injection, schedule: Q04DX003 (ip), vehicle: Klucel (hydroxypropylcellulose) (HPC)
[4] = dose: 100.0 mg/kg/injection, schedule: Q04DX003 (ip), vehicle: saline
[5] = dose: 200.0 mg/kg/injection, schedule: Q01DX001 (ip), vehicle: saline
[6] = dose: 200.0 mg/kg/injection, schedule: Q04DX003 (ip), vehicle: Klucel (hydroxypropylcellulose) (HPC)
[7] = dose: 200.0 mg/kg/injection, schedule: Q04DX003 (ip), vehicle: saline
[8] = dose: 400.0 mg/kg/injection, schedule: Q01DX001 (ip), vehicle: saline
[9] = dose: 400.0 mg/kg/injection, schedule: Q04DX003 (ip), vehicle: Klucel (hydroxypropylcellulose) (HPC)
[10] = dose: 200.0 mg/kg/injection, schedule: Q01DX009 (ip), vehicle: Klucel (hydroxypropylcellulose) (HPC)
[11] = dose: 400.0 mg/kg/injection, schedule: Q01DX009 (ip), vehicle: Klucel (hydroxypropylcellulose) (HPC)
[12] = dose: 50.0 mg/kg/injection, schedule: Q01DX009 (ip), vehicle: saline with Tween-80
[13] = dose: 100.0 mg/kg/injection, schedule: Q01DX009 (ip), vehicle: saline with Tween-80
[14] = dose: 100.0 mg/kg/injection, schedule: Q04DX003 (ip), vehicle: saline with Tween-80
[15] = dose: 200.0 mg/kg/injection, schedule: Q01DX009 (ip), vehicle: saline with Tween-80
[16] = dose: 200.0 mg/kg/injection, schedule: Q04DX003 (ip), vehicle: saline with Tween-80
[17] = dose: 400.0 mg/kg/injection, schedule: Q04DX003 (ip), vehicle: saline with Tween-80

Measured: T/C

OC(CBr)C(O)CBr (stereo not drawn)
inactive: dose: 12.5 mg/kg/injection, schedule: Q01DX009 (ip), vehicle: saline 101 % of control | dose: 25.0 mg/kg/injection, schedule: Q01DX009 (ip), vehicle: saline 97 % of control | dose: 50.0 mg/kg/injection, schedule: Q01DX009 (ip), vehicle: saline 97 % of control

O=C1CC2c3ccccc3C1C1C(=O)OC(=O)C21 (stereo not drawn)
inactive: dose: 25.0 mg/kg/injection, schedule: Q01DX009 (ip), vehicle: Klucel (hydroxypropylcellulose) (HPC) 94 % of control | dose: 50.0 mg/kg/injection, schedule: Q01DX009 (ip), vehicle: Klucel (hydroxypropylcellulose) (HPC) 105 % of control | [1] 102 % of control | [2] 112 % of control | dose: 100.0 mg/kg/injection, schedule: Q01DX009 (ip), vehicle: saline 96 % of control | [3] 107 % of control | [4] 100 % of control | [5] 98 % of control | [6] 100 % of control | [7] 91 % of control | [8] 93 % of control | [9] 109 % of control

CCOC(=N)c1cc([N+](=O)[O-])cc([N+](=O)[O-])c1
inactive: [1] 102 % of control | [5] 104 % of control | [8] 102 % of control

C=C(C)Cc1cnc(SCc2ccccc2)[nH]c1=O
inactive: [2] 93 % of control | [3] 97 % of control | [10] 91 % of control | [6] 103 % of control | [11] 94 % of control | [9] 104 % of control

CN(C)CCC(=O)c1ccc2cc(Br)c3ccccc3c2c1
inactive: dose: 13.3 mg/kg/injection, schedule: Q01DX Z (ip), vehicle: methylcellulose (MC) 91 % of control | dose: 30.0 mg/kg/injection, schedule: Q01DX Z (ip), vehicle: methylcellulose (MC) 95 % of control

O=S(=O)(O)CCC(O)S(=O)(=O)O (stereo not drawn)
inactive: dose: 100.0 mg/kg/injection, schedule: Q04DX002 (ip), vehicle: Klucel (hydroxypropylcellulose) (HPC) 98 % of control | dose: 200.0 mg/kg/injection, schedule: Q04DX002 (ip), vehicle: Klucel (hydroxypropylcellulose) (HPC) 92 % of control | dose: 400.0 mg/kg/injection, schedule: Q04DX002 (ip), vehicle: Klucel (hydroxypropylcellulose) (HPC) 92 % of control

CCSP(=S)(SCC)SCC
inactive: dose: 75.0 mg/kg/injection, schedule: Q04DX003 (ip), vehicle: Klucel (hydroxypropylcellulose) (HPC) 94 % of control | dose: 150.0 mg/kg/injection, schedule: Q04DX003 (ip), vehicle: Klucel (hydroxypropylcellulose) (HPC) 92 % of control | dose: 300.0 mg/kg/injection, schedule: Q04DX003 (ip), vehicle: Klucel (hydroxypropylcellulose) (HPC) 120 % of control

CC/C(C)=C\CC/C(C)=C/COc1cccc([N+](=O)[O-])c1
inactive: dose: 50.0 mg/kg/injection, schedule: Q01DX009 (ip), vehicle: carboxymethylcellulose (CMC) 97 % of control | dose: 100.0 mg/kg/injection, schedule: Q01DX009 (ip), vehicle: carboxymethylcellulose (CMC) 92 % of control | dose: 200.0 mg/kg/injection, schedule: Q01DX009 (ip), vehicle: carboxymethylcellulose (CMC) 101 % of control

COC(=O)/C=C(\C(=O)OC)c1c(-c2ccccc2)[nH]c2ccccc12
inactive: dose: 75.0 mg/kg/injection, schedule: Q01DX001 (ip), vehicle: carboxymethylcellulose (CMC) 92 % of control | dose: 150.0 mg/kg/injection, schedule: Q01DX001 (ip), vehicle: carboxymethylcellulose (CMC) 89 % of control | dose: 300.0 mg/kg/injection, schedule: Q01DX001 (ip), vehicle: carboxymethylcellulose (CMC) 94 % of control

COc1ccc(OC(=O)Nc2cc([N+](=O)[O-])ccc2F)cc1
inactive: [2] 106 % of control | [10] 93 % of control | [11] 93 % of control

Cc1ccc(CNc2ccc(C)cc2)cc1
inactive: [2] 100 % of control | [3] 98 % of control | [10] 106 % of control | [6] 100 % of control | [11] 99 % of control | [9] 95 % of control

C1CCC(CCC(CCCC2CCCC2)CCC2CCCCC2)CC1
inactive: dose: 100.0 mg/kg/injection, schedule: Q01DX001 (ip), vehicle: saline with Tween-80 94 % of control | dose: 200.0 mg/kg/injection, schedule: Q01DX001 (ip), vehicle: saline with Tween-80 94 % of control | dose: 400.0 mg/kg/injection, schedule: Q01DX001 (ip), vehicle: saline with Tween-80 102 % of control

Cc1ccc(C(=O)O)cc1S(=O)(=O)Cl
inactive: [12] 113 % of control | [13] 98 % of control | [14] 102 % of control | [15] 95 % of control | [16] 87 % of control | [17] 92 % of control

NCC1OC(OC2C(CO)OC(OC3C(O)C(N)CC(N)C3OC3OC(CN)C(O)C(O)C3N)C2O)C(N)C(O)C1O (stereo not drawn)
inactive: dose: 37.5 mg/kg/injection, schedule: Q01DX001 (ip), vehicle: saline 100 % of control | dose: 75.0 mg/kg/injection, schedule: Q01DX001 (ip), vehicle: saline 105 % of control | dose: 150.0 mg/kg/injection, schedule: Q01DX001 (ip), vehicle: saline 111 % of control

O=Nc1ccc(O)cc1Br
inactive: dose: 100.0 mg/kg/injection, schedule: Q01DX001 (ip), vehicle: Klucel (hydroxypropylcellulose) (HPC) 100 % of control | dose: 200.0 mg/kg/injection, schedule: Q01DX001 (ip), vehicle: Klucel (hydroxypropylcellulose) (HPC) 97 % of control | dose: 400.0 mg/kg/injection, schedule: Q01DX001 (ip), vehicle: Klucel (hydroxypropylcellulose) (HPC) 100 % of control and 92 % of control

CCS(=O)CC
inactive: dose: 100.0 mg/kg/injection, schedule: Q04DX002 (ip), vehicle: saline 106 % of control | [4] 101 % of control and 108 % of control | dose: 200.0 mg/kg/injection, schedule: Q04DX002 (ip), vehicle: saline 89 % of control | [7] 94 % of control and 97 % of control | dose: 400.0 mg/kg/injection, schedule: Q04DX002 (ip), vehicle: saline 95 % of control | dose: 400.0 mg/kg/injection, schedule: Q04DX003 (ip), vehicle: saline 101 % of control and 104 % of control

CC12CCCCC1=CC(OC(=O)c1ccc([N+](=O)[O-])cc1)CC2 (stereo not drawn)
inactive: [12] 94 % of control | [13] 98 % of control | [15] 94 % of control

CCCCSCCC
inactive: [13] 98 % of control | [14] 117 % of control | [15] 98 % of control | [16] 96 % of control | dose: 400.0 mg/kg/injection, schedule: Q01DX009 (ip), vehicle: saline with Tween-80 94 % of control | [17] 94 % of control
